{"source": "patent US20190374601A1", "about": "“METHODS FOR TREATING FUNGAL INFECTIONS” (priority 2017, published 2019)", "format_in_all_cases": "in vivo", "key": {"[1]": {"assay": "Tissue concentration of subcutaneously injected CD101 in cynomolgus monkeys", "settings": "for CD101 Concentration: individual animals, at necropsy; for Mean Concentration: mean of males and females", "procedure": "In this study, the tissue concentration of subcutaneously injected CD101 was evaluated in cynomolgus monkeys.\n(§1) Dose levels were 30, 60, and 120 mg/kg/dose for Groups 2, 3, and 4, respectively. […] The dose volumes were 1.2, 0.3, 0.6, and 1.2 mL/kg spread evenly over 4, 1, 2, and 4 dose sites for Groups 1-4, respectively, on each day of dosing. The control and 120 mg/kg/dose groups each consisted of 5 males and 5 females, and the 30 and 60 mg/kg/dose groups each consisted of 3 males and 3 females.\n(§2) The animals were observed twice daily for mortality and moribundity. Clinical examinations were performed once daily for at least 6 consecutive days, including the day of randomization, prior to randomization, prior to dosing, 1-2 hours postdosing, once daily on nondosing days, and once daily during the recovery period. Detailed physical examinations were performed at least weekly during the acclimation period until randomization, on the day of randomization, weekly (±2 days) during the study period, and on the day of the scheduled necropsies. Injection site (IS) observations were performed prior to dosing (dose sites that were utilized on that day of dosing), 1-2 hours postdosing (dose sites that were utilized on that day of dosing), once daily on nondosing days (dose sites that had been previously been utilized), and twice weekly during the recovery period. Individual body weights were recorded weekly (±2 days). Individual body weights were collected at least weekly during the acclimation period until randomization, on the day of randomization, Study Day 0 (prior to dosing), weekly (2±days) during the study period, on the day prior to the day of the scheduled necropsies (nonfasted) and on the day of the scheduled necropsies (fasted). Clinical pathology parameters (hematology, coagulation, serum chemistry, and urinalysis) were analyzed during acclimation prior to randomization (Study Day −15), and on the day of the primary (Study Day 17) and recovery (Study Day 45) necropsies. Blood samples for toxicokinetic evaluation were collected from all animals/sex/group/time point prior to dose administration and at approximately 1, 2, 4, 8, 24, 48, and 72 hours after dose administration on Study Days 0 and 12. Complete necropsies were performed on all animals, and selected organs were weighed at the scheduled necropsies. Selected tissues were examined microscopically from all animals. Fingernail, toenail, nail bed, and abdominal skin samples were collected from all animals at the scheduled necropsies for bioanalytical analysis."}, "[2]": {"assay": "Toxicokinetic evaluation (plasma) after subcutaneous injection in cynomolgus monkeys", "procedure": "as §1, §2"}, "[3]": {"system": "T. mentagrophytes ATCC 24953", "assay": "Clinical evaluation of infected skin, T. mentagrophytes dermatophytosis guinea pig model, Example 1", "settings": "for Percent Efficacy Clinical: evaluated study day 10, relative to vehicle control", "procedure": "A request was made to the Animal Resource Center (ARC) at Case Western Reserve University to order the required number of male albino Harlan-Sprague-Dawley Guinea-Pigs (San Diego, Calif.) with a body weight of 450-500 g. Animals were allowed to acclimate for a minimum of 5 days prior to use. Environmental controls for the animal room were set to maintain a temperature of 16 to 22° C., a relative humidity of 30-70%, and a 12:12 light-dark cycle.\nT. mentagrophytes ATCC 24953 was used as the infecting fungus. This strain was selected because it can cause skin infection and results in inflammatory reaction.\nT. mentagrophytes (from frozen stock) was sub-cultured on Potato Dextrose Agar plates and incubated at 30° C. for 5-7 days. The colonies were scraped from the plates using sterile normal saline (NaCl 0.85%) solution. After washing for three times with sterile saline the conidia were re-suspended in the same solution. Ten-fold dilutions of conidia suspension were prepared and counted using a hemacytometer. Working suspension of conidia was prepared at a final concentration of 1×10^7 Colony Forming Units (CFUs)/100 μL in normal saline.\nEach animal was anesthetized with a cocktail of xylazine and ketamine: 0.2 mL intramuscularly. Using an electric shaver, hair was clipped on left side of the guinea pig back. A closer shave was done with a disposable razor. Using a stencil, a square of 2.5 cm×2.5 cm was marked. The marked skin area was abraded with sterile fine grit sandpaper. A cell suspension containing 1×10^7 conidia in 100 μL was applied and rubbed thoroughly on the abraded skin.\nBeginning two hours post inoculation, animals were treated subcutaneously (SQ) for CD101 and orally (PO) terbinafine once daily for a period of nine days, or once a week on days 1 and 8.\nStudy Day 1: Infected the animals with T. mentagrophytes and begin treatments.\nStudy Day 9 (treatment day 9): End treatments.\nStudy Day 10: Clinical evaluation of the four quadrants in the marked area was done. Hair samples were obtained from each quadrant (10 per quadrant). Hairs were planted in Potato Dextrose Agar, and incubated for 48 h for mycological evaluation. Procedures for clinical and mycological evaluations are described below.\nCD101 was administered SQ in 0.3 mL, while the terbinafine was given orally in 0.3 mL. Vehicle treated group was also included.\nClinical assessment of local changes of the infected skin area was scored as follows:\n1=Few slightly erythematous places on the skin\n2=Well-defined redness, swelling with bristling hairs.\n3=Large areas or marked redness incrustation, scaling, bald patches, ulcerated in places.\n4=Partial damage to the integument and loss of hair\n5=Extensive damage to the integument and complete loss of hair at the site of infection.\nAny other local skin reactions were noted. The assessment of clinical evaluation in the change of scores per treatment group is expressed as percentage relative to the vehicle control group of animals using the following formula:\nwhere, T=Scores in the test group. K=Scores in the untreated control"}}, "note": "Several values for one entry are separate records, joined by “and”; a condition that tells them apart may be missing. Equal entries are not always repeated. Starred links: 1 amine or outer side, 2 acyl side, 3 side chain; linkers in the order of their positions; H or OH if unused. Positions of bridges follow the written chain, without caps; N, C: chain ends. Non-standard residues stand in square brackets, D forms with d. Residues, ends and D or L forms follow the SMILES beside them. *: point of attachment. Orn(4R-OH,5R-OCH2CH2NMe3+) = C[N+](C)(C)CCO[C@@H](N[*:3])[C@H](O)C[C@H](N[*:1])C(=O)[*:2]; pTerphenylCO(4''-OnC5H11) = CCCCCOc1ccc(-c2ccc(-c3ccc(C(=O)*)cc3)cc2)cc1; hTyr(3S-OH,4S-OH) = N[C@H](C(=O)O)[C@H](O)[C@@H](O)c1ccc(O)cc1; Pro(3S-OH,4S-Me) = C[C@H]1CN[C@H](C(=O)O)[C@H]1O; Hyp = O=C(O)[C@@H]1C[C@@H](O)CN1", "data": [{"smiles": "CCCCCOc1ccc(-c2ccc(-c3ccc(C(=O)N[C@H]4C[C@@H](O)[C@@H](OCC[N+](C)(C)C)NC(=O)[C@@H]5[C@@H](O)[C@@H](C)CN5C(=O)[C@H]([C@@H](C)O)NC(=O)[C@H]([C@H](O)[C@@H](O)c5ccc(O)cc5)NC(=O)[C@@H]5C[C@@H](O)CN5C(=O)[C@H]([C@@H](C)O)NC4=O)cc3)cc2)cc1", "note": "[CD101] ({pTerphenylCO(4''-OnC5H11)}-[Orn(4R-OH,5R-OCH2CH2NMe3+)]T[Hyp][hTyr(3S-OH,4S-OH)]T[Pro(3S-OH,4S-Me)]; lactam 1-C)", "values": [{"measurement": "CD101 Concentration", "setting": "[1]; Fingernail bed, 30 mg/kg/dose SC once every 3 days (5 doses), 30 mg/kg", "value": "168 µg/g and 160 µg/g and 92.5 µg/g and 75.9 µg/g and 71.9 µg/g and 48.6 µg/g"}, {"measurement": "Mean Concentration", "setting": "[1]; Fingernail bed, 30 mg/kg/dose SC", "value": 103, "unit": "µg/g"}, {"measurement": "CD101 Concentration", "setting": "[1]; Fingernail bed, 60 mg/kg/dose SC once every 3 days (5 doses), 60 mg/kg", "value": "218 µg/g and 96.7 µg/g and 251 µg/g and 159 µg/g and 175 µg/g and 184 µg/g"}, {"measurement": "Mean Concentration", "setting": "[1]; Fingernail bed, 60 mg/kg/dose SC", "value": 181, "unit": "µg/g"}, {"measurement": "CD101 Concentration", "setting": "[1]; Fingernail bed, 120 mg/kg/dose SC once every 3 days (5 doses), 120 mg/kg", "value": "1351 µg/g and 404 µg/g and 67.1 µg/g and 129 µg/g and 346 µg/g and 332 µg/g and 330 µg/g and 147 µg/g and 283 µg/g and 114 µg/g"}, {"measurement": "Mean Concentration", "setting": "[1]; Fingernail bed, 120 mg/kg/dose SC", "value": 350, "unit": "µg/g"}, {"measurement": "CD101 Concentration", "setting": "[1]; Fingernail, 30 mg/kg/dose SC once every 3 days (5 doses), 30 mg/kg", "value": "106 µg/g and 118 µg/g and 63.6 µg/g and 60.8 µg/g and 74.2 µg/g"}, {"measurement": "CD101 Concentration", "setting": "[1]; Fingernail, 60 mg/kg/dose SC once every 3 days (5 doses), 60 mg/kg", "value": "194 µg/g and 108 µg/g and 527 µg/g and 171 µg/g and 155 µg/g and 175 µg/g"}, {"measurement": "Mean Concentration", "setting": "[1]; Fingernail, 60 mg/kg/dose SC", "value": 222, "unit": "µg/g"}, {"measurement": "CD101 Concentration", "setting": "[1]; Fingernail, 120 mg/kg/dose SC once every 3 days (5 doses), 120 mg/kg", "value": "266 µg/g and 264 µg/g and 445 µg/g and 469 µg/g and 239 µg/g and 244 µg/g and 269 µg/g and 459 µg/g and 348 µg/g and 339 µg/g"}, {"measurement": "Mean Concentration", "setting": "[1]; Fingernail, 120 mg/kg/dose SC", "value": 334, "unit": "µg/g"}, {"measurement": "CD101 Concentration", "setting": "[1]; Skin, 30 mg/kg/dose SC once every 3 days (5 doses), 30 mg/kg", "value": "38.2 µg/g and 44.4 µg/g and 43.7 µg/g"}, {"measurement": "CD101 Concentration", "setting": "[1]; Skin, 60 mg/kg/dose SC once every 3 days (5 doses), 60 mg/kg", "value": "108 µg/g and 66.2 µg/g and 99.6 µg/g and 48.8 µg/g and 81.7 µg/g and 82.0 µg/g"}, {"measurement": "Mean Concentration", "setting": "[1]; Skin, 60 mg/kg/dose SC", "value": 81.0, "unit": "µg/g"}, {"measurement": "CD101 Concentration", "setting": "[1]; Skin, 120 mg/kg/dose SC once every 3 days (5 doses), 120 mg/kg", "value": "133 µg/g and 132 µg/g and 32.0 µg/g and 12.2 µg/g and 141 µg/g and 151 µg/g and 77.6 µg/g and 43.1 µg/g and 135 µg/g and 15.9 µg/g"}, {"measurement": "Mean Concentration", "setting": "[1]; Skin, 120 mg/kg/dose SC", "value": 87.3, "unit": "µg/g"}, {"measurement": "CD101 Concentration", "setting": "[1]; Toenail bed, 30 mg/kg/dose SC once every 3 days (5 doses), 30 mg/kg", "value": "76.9 µg/g and 102 µg/g and 50.5 µg/g and 86.1 µg/g and 82.9 µg/g"}, {"measurement": "Mean Concentration", "setting": "[1]; Toenail bed, 30 mg/kg/dose SC", "value": 74.7, "unit": "µg/g"}, {"measurement": "CD101 Concentration", "setting": "[1]; Toenail, 30 mg/kg/dose SC once every 3 days (5 doses), 30 mg/kg", "value": "76.0 µg/g and 74.2 µg/g and 126 µg/g and 58.8 µg/g and 42.8 µg/g and 38.3 µg/g"}, {"measurement": "Mean Concentration", "setting": "[1]; Toenail, 30 mg/kg/dose SC", "value": 69.3, "unit": "µg/g"}, {"measurement": "CD101 Concentration", "setting": "[1]; Toenail, 60 mg/kg/dose SC once every 3 days (5 doses), 60 mg/kg", "value": "265 µg/g and 86.7 µg/g and 198 µg/g and 106 µg/g and 160 µg/g and 79.2 µg/g"}, {"measurement": "Mean Concentration", "setting": "[1]; Toenail, 60 mg/kg/dose SC", "value": 149, "unit": "µg/g"}, {"measurement": "CD101 Concentration", "setting": "[1]; Toenail, 120 mg/kg/dose SC once every 3 days (5 doses), 120 mg/kg", "value": "268 µg/g and 182 µg/g and 360 µg/g and 162 µg/g and 416 µg/g and 173 µg/g and 206 µg/g and 318 µg/g and 190 µg/g and 193 µg/g"}, {"measurement": "Mean Concentration", "setting": "[1]; Toenail, 120 mg/kg/dose SC", "value": 247, "unit": "µg/g"}, {"measurement": "combined accumulation ratio (plasma)", "setting": "[2]; 30 mg/kg/dose SC once every 3 days, males and females combined", "value": 3.18}, {"measurement": "combined accumulation ratio (plasma)", "setting": "[2]; 60 mg/kg/dose SC once every 3 days, males and females combined", "value": 2.70}, {"measurement": "combined accumulation ratio (plasma)", "setting": "[2]; 120 mg/kg/dose SC once every 3 days, males and females combined", "value": 2.67}, {"measurement": "time by which concentrations reached maximum or near maximum observed values", "setting": "[2]; Study Day 0, postdose, SC", "value": "≤ 8", "unit": "h"}, {"measurement": "increase of combined exposure (AUC0-72 and Cmax) over a 4-fold dose change", "setting": "[2]; Study Day 12, 30 to 120 mg/kg/dose SC", "value": "approximately 3 fold"}, {"measurement": "predose concentration on Study Day 12 relative to Study Day 0 Cmax", "setting": "[2]; Study Day 12 predose, SC once every 3 days", "value": "approximately 2 fold"}, {"measurement": "Cmax", "setting": "[2]; both sexes, cynomolgus monkey, plasma, range across the 30 to 120 mg/kg groups, males and females combined, SC", "value": "21 to 65.1", "unit": "µg/mL"}, {"measurement": "AUC(0-t)", "setting": "[2]; both sexes, cynomolgus monkey, plasma, range across the 30 to 120 mg/kg groups, males and females combined, SC, read-out: AUC0-72", "value": "1360 to 4320", "unit": "µg·h/mL"}, {"measurement": "Percent Efficacy Clinical", "setting": "[3]; 35 mg/kg SQ daily for nine days", "value": 84.0, "unit": "%"}, {"measurement": "Percent Efficacy Clinical", "setting": "[3]; 35 mg/kg SQ once a week (days 1 and 8)", "value": 78.7, "unit": "%"}, {"measurement": "clinical signs versus vehicle control group", "setting": "[3]; guinea pigs, 35 mg/kg SQ daily and weekly", "value": "fewer clinical signs than the vehicle control group beginning on day 5 post inoculation"}, {"measurement": "injection site reaction", "setting": "[3]; guinea pigs, 35 mg/kg SQ daily or once a week", "value": "no bruising or redness was noted at the injection site"}]}]}
